These results are taken from ChEMBL document CHEMBL3991601, “The target landscape of clinical kinase drugs” (Science, 2017).

Test [1] addresses T1, Mitogen-activated protein kinase kinase kinase 6 (Homo sapiens, UniProt O95382).
T1 sequence (O95382 whole entry): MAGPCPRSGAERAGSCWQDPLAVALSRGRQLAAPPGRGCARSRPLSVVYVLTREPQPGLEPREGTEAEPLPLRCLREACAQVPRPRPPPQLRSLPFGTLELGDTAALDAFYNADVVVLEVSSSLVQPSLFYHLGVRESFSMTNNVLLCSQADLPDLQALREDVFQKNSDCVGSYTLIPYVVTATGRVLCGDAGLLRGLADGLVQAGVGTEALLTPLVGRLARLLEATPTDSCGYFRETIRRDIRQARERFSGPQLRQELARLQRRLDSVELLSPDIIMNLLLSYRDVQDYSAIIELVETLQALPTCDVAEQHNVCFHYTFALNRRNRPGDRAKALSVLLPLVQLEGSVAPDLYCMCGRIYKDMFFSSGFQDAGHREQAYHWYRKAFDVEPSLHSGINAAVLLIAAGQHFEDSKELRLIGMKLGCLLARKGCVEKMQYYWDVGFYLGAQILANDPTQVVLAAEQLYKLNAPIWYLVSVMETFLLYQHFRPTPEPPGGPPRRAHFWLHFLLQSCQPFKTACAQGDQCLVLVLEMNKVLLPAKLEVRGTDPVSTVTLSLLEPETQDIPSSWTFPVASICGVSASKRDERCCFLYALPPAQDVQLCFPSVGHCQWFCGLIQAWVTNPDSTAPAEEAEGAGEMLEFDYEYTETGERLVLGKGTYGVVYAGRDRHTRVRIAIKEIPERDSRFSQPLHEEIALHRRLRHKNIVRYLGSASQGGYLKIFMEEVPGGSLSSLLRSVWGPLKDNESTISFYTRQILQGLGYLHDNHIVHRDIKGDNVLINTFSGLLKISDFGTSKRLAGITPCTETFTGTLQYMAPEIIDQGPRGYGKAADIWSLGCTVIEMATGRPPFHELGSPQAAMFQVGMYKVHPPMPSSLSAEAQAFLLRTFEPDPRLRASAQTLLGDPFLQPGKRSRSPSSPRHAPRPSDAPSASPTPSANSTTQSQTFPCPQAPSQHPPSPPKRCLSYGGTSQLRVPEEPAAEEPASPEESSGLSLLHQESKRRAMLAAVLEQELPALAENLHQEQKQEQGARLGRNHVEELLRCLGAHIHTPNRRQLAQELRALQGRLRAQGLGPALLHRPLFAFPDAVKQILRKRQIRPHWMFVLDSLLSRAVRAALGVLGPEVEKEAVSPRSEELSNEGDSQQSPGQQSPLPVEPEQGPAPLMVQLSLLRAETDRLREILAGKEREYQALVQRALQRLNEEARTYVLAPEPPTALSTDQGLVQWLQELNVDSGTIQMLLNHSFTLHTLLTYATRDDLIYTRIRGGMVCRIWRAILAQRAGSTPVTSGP

In test [2] the target is Serine/threonine-protein kinase pim-1 (Homo sapiens, UniProt P11309).
Test [3] concerns the target Glycogen synthase kinase-3 alpha (Homo sapiens, UniProt P49840).
For test [4], the target named is RAC-alpha serine/threonine-protein kinase (Homo sapiens, UniProt P31749).
The target in test [5] is Tyrosine-protein kinase CSK (Homo sapiens, UniProt P41240).
Test [6] deals with Tyrosine-protein kinase ABL1 (Homo sapiens, UniProt P00519).
In the next test the target is T2, Septin-9 (Homo sapiens, UniProt Q9UHD8).
T2 sequence (Q9UHD8 whole entry): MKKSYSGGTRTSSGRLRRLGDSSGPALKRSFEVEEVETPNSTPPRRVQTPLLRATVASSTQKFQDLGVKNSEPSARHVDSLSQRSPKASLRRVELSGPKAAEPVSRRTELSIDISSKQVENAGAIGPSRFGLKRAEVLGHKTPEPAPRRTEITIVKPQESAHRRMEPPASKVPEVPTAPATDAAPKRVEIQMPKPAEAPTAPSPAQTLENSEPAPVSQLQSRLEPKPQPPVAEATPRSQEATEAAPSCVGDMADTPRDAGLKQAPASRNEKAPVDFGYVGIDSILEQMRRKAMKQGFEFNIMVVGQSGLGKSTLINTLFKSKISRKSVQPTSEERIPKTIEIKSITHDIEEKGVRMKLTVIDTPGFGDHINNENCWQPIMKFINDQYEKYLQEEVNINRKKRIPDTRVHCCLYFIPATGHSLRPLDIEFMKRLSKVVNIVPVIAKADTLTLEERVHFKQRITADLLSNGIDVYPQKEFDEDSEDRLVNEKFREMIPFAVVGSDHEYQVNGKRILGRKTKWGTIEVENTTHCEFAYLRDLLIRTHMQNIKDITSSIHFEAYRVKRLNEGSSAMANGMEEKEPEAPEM

A further test deals with Ephrin type-A receptor 5 (Homo sapiens, UniProt P54756).
The target of test [7] is Tyrosine-protein kinase Lyn (Homo sapiens, UniProt P07948).
The target in test [8] is Dual specificity tyrosine-phosphorylation-regulated kinase 1A (Homo sapiens, UniProt Q13627).

Structures are written as SMILES. Active and inactive are the calls of the source. Rule as the data show it, for most assays here: actives have a measured Kd and inactives only a lower limit.
Also: in the data inactive means no Kd found up to 30 µM.

Tyrosine-protein kinase ABL1, sequence (P00519 whole entry): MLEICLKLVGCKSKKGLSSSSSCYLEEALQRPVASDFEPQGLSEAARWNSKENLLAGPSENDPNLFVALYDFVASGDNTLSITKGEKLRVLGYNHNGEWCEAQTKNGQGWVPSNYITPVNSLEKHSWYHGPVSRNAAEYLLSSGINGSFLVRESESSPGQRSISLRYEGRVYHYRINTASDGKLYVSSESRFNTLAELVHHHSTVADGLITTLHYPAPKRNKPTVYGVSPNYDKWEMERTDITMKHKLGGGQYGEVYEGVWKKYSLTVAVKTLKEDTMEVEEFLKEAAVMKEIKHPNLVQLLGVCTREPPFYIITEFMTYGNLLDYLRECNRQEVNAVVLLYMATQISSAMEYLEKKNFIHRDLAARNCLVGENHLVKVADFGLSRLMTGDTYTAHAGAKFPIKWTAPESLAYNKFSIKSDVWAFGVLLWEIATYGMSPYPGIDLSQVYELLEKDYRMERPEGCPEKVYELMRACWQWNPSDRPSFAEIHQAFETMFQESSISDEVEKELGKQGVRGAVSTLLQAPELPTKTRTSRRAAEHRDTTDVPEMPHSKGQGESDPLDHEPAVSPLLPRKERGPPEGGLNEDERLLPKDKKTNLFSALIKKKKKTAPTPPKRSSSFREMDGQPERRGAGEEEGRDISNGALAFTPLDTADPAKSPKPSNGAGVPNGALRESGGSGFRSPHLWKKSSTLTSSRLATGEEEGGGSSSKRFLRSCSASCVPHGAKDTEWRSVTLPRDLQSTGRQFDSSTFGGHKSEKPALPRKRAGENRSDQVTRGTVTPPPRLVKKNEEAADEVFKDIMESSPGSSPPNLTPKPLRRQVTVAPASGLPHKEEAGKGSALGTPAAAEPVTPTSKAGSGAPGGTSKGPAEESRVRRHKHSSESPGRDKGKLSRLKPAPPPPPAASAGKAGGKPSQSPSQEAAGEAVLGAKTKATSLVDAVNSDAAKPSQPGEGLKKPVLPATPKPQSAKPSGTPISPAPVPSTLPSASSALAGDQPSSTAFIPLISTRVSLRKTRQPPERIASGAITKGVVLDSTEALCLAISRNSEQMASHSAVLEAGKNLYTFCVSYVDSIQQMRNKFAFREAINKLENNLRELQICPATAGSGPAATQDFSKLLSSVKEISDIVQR
Tyrosine-protein kinase Lyn, sequence (P07948 whole entry): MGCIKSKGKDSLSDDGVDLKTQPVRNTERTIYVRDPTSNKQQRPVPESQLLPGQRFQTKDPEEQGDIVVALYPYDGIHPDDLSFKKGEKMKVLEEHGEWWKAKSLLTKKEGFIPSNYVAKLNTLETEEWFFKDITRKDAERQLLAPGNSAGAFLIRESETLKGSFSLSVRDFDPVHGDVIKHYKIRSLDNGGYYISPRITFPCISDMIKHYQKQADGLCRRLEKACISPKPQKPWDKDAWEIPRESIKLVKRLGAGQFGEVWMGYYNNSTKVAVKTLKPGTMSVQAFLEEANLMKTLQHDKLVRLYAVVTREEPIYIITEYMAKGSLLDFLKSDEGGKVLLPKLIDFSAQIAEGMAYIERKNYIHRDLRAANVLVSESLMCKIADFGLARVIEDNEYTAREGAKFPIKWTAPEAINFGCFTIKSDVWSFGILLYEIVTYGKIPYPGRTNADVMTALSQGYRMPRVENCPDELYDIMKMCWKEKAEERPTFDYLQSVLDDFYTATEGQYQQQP
Ephrin type-A receptor 5, sequence (P54756 whole entry): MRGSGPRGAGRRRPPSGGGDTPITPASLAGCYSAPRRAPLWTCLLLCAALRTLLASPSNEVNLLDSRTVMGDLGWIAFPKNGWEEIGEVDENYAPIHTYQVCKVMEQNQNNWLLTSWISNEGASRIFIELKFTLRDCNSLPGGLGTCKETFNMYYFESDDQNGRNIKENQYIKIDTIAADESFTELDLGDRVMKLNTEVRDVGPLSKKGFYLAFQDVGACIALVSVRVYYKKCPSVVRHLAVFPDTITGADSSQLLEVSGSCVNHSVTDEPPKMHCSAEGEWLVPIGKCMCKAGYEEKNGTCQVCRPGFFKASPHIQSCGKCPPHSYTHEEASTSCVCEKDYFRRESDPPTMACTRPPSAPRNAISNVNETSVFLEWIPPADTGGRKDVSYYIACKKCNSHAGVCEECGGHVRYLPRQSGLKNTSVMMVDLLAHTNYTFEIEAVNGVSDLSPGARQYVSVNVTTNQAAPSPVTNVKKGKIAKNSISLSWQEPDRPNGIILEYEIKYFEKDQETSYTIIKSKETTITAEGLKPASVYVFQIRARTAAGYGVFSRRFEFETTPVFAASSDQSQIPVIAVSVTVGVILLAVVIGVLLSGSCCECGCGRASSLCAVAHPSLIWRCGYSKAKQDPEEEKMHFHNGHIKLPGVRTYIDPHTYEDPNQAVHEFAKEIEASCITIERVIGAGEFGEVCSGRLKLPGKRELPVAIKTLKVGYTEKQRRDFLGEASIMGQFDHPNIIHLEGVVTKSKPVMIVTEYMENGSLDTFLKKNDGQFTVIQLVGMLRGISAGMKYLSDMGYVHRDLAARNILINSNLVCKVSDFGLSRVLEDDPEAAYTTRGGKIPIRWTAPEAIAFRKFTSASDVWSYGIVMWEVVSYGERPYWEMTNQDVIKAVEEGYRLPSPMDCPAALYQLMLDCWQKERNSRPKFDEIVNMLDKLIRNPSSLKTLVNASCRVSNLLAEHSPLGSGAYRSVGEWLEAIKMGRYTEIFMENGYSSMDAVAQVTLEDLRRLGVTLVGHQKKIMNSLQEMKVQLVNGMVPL
Glycogen synthase kinase-3 alpha, sequence (P49840 whole entry): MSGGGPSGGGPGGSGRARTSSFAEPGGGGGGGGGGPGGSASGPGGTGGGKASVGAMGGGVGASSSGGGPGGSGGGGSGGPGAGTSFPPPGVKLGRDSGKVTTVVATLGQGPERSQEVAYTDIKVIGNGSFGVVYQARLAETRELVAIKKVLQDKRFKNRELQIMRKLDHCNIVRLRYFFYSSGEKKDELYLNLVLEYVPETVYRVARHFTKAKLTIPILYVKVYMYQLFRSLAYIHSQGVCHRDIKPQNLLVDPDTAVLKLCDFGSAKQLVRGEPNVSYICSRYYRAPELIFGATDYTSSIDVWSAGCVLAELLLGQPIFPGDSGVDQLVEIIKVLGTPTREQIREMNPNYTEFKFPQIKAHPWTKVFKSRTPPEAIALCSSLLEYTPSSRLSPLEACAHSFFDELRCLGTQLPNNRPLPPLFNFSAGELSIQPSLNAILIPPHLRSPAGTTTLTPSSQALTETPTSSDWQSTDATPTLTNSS
RAC-alpha serine/threonine-protein kinase, sequence (P31749 whole entry): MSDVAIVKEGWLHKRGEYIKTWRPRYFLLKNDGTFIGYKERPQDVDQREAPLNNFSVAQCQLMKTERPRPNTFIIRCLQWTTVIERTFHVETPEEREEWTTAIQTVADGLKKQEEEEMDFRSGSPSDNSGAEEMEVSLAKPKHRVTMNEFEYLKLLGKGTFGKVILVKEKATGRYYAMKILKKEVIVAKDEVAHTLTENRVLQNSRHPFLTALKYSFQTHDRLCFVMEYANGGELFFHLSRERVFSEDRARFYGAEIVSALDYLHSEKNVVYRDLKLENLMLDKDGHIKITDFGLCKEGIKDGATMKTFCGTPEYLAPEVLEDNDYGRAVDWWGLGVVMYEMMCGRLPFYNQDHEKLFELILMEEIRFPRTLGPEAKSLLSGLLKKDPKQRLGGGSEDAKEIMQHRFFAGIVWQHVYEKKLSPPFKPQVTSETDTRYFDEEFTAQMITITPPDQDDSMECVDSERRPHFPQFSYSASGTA
Tyrosine-protein kinase CSK, sequence (P41240 whole entry): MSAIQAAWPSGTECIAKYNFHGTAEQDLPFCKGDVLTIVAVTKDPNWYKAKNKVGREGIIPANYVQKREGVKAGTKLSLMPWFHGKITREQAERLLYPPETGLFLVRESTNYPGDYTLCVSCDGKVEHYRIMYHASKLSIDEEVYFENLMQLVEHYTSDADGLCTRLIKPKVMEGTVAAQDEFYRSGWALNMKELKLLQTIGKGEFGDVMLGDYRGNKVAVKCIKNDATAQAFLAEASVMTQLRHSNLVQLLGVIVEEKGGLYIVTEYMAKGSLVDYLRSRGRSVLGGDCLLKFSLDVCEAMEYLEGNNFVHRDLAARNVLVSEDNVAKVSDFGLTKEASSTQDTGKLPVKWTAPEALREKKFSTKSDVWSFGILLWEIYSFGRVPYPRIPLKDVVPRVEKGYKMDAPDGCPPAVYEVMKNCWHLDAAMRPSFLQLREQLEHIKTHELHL
Serine/threonine-protein kinase pim-1, sequence (P11309 whole entry): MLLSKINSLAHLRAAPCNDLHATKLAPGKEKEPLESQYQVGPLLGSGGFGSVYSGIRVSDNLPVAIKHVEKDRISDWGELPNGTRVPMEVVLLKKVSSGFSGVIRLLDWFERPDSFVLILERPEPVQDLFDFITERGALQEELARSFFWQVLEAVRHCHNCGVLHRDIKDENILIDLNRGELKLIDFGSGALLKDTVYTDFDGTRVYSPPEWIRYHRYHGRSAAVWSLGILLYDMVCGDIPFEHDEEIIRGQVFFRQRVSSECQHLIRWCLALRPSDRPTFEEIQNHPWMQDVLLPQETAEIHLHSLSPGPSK

A word on the Kd: it is the free concentration of one partner at which half of the binding sites on the other are occupied at equilibrium, for simple one-to-one binding. Take `CC[C@H](Nc1ncnc2[nH]cnc12)c1nc2cccc(F)c2c(=O)n1-c1ccccc1` [IDELALISIB]: the Kd in test [1], in test [2], in test [3], in test [4], in test [5] and in test [6] was > 30 µM (inactive) in each case. The Kd (on Septin-9; on Ephrin type-A receptor 5; in test [7]; in [8]) was > 30 µM (inactive) throughout.
As to `C[C@@H](c1ccc2nccn2c1)n1nnc2ncc(-c3cnn(C)c3)nc21` [SAVOLITINIB], the Kd in [1], in [2], in test [3], in [4], in [5] and in test [6] was > 30 µM (inactive) each time. Moreover, the Kd (on Septin-9; on Ephrin type-A receptor 5; in test [7]; in test [8]) was > 30 µM (inactive) each time.
On to `CNC(=O)CN1CCC(Oc2cc3c(Nc4cccc(Cl)c4F)ncnc3cc2OC)CC1` [SAPITINIB], for which the Kd in test [1], in test [2], in test [3], in [4], in test [5] and in test [6] was > 30 µM (inactive) each time. Also, the Kd is > 30 µM (inactive) at Septin-9, 0.835 µM (active) on Ephrin type-A receptor 5, 2.48 µM (active) in test [7] and > 30 µM (inactive) in [8].
With `O=C(c1ccc(F)c(F)c1Nc1ccc(I)cc1F)N1CC(O)([C@@H]2CCCCN2)C1` [COBIMETINIB], the Kd in test [1], in test [2], in test [3], in test [4], in test [5] and in [6] was > 30 µM (inactive) each time. Further, the Kd (on Septin-9; at Ephrin type-A receptor 5; in test [7]; in test [8]) was > 30 µM (inactive) in each case.
With `Cc1ccc(S(=O)(=O)Nc2nc3ccccc3nc2Nc2ccc3nsnc3c2)cc1`, the Kd in test [1], in test [2], in [3], in test [4], in [5] and in [6] was > 30 µM (inactive) throughout. The Kd (at Septin-9; at Ephrin type-A receptor 5; in test [7]; in test [8]) was > 30 µM (inactive) each time.
As to `CCS(=O)(=O)N1CC(CC#N)(n2cc(-c3ncnc4[nH]ccc34)cn2)C1` [BARICITINIB], the Kd in [1], in test [2], in [3], in test [4], in test [5] and in [6] was > 30 µM (inactive) in each case. The Kd on Septin-9 is 0.084 µM; on Ephrin type-A receptor 5, > 30 µM (inactive); in test [7] it was > 30 µM (inactive); in test [8], > 30 µM (inactive).
Consider `Cc1ccc(NC(=O)c2ccc(CN3CC[C@H](N(C)C)C3)c(C(F)(F)F)c2)cc1Nc1nccc(-c2cncnc2)n1` [BAFETINIB], for which the Kd was > 30 µM (inactive) in [1]; > 30 µM (inactive) in [2]; > 30 µM (inactive) in test [3]; > 30 µM (inactive) in test [4]; 2.15 µM (active) in test [5]; 0.026 µM (active) in test [6]. Also, the Kd on Septin-9 is > 30 µM (inactive); on Ephrin type-A receptor 5 it was 0.345 µM; in test [7], 0.239 µM (active); in test [8], > 30 µM (inactive).
As for `Cc1ccc(-n2nc(C(C)(C)C)cc2NC(=O)NCc2cc(F)ccc2Oc2ccc3c(cnn3CCO)c2)cc1` [PEXMETINIB], the Kd in test [1] is > 30 µM (inactive); in [2], > 30 µM (inactive); in test [3], > 30 µM (inactive); in test [4], > 30 µM (inactive); in test [5] it was > 30 µM (inactive); in [6] it was 0.211 µM (active). The Kd is > 30 µM (inactive) at Septin-9, > 30 µM (inactive) on Ephrin type-A receptor 5, 2.5 µM (active) in test [7] and > 30 µM (inactive) in [8].
Take `CNS(=O)(=O)Nc1nccc(Cc2c(C)c3ccc(Oc4ncccn4)cc3oc2=O)c1F` [AVUTOMETINIB]: the Kd in test [1], in test [2], in test [3], in test [4], in test [5] and in test [6] was > 30 µM (inactive) throughout. Further, the Kd (on Septin-9; on Ephrin type-A receptor 5; in test [7]; in test [8]) was > 30 µM (inactive) throughout.
In the case of `COc1ccc(-c2ccc3c(N4CCOC[C@@H]4C)nc(N4CCOC[C@@H]4C)nc3n2)cc1CO` [AZD-8055], the Kd in test [1], in test [2], in test [3], in test [4], in [5] and in test [6] was > 30 µM (inactive) in each case. Also, the Kd (on Septin-9; at Ephrin type-A receptor 5; in test [7]; in [8]) was > 30 µM (inactive) throughout.
On to `C1=C/COCc2cc(ccc2OCCN2CCCC2)Nc2nccc(n2)-c2cccc(c2)COC/1` [PACRITINIB], for which the Kd was > 30 µM (inactive) in [1]; > 30 µM (inactive) in test [2]; 5.19 µM (active) in [3]; > 30 µM (inactive) in test [4]; > 30 µM (inactive) in [5]; > 30 µM (inactive) in test [6]. For the same compound, the Kd (on Septin-9; on Ephrin type-A receptor 5; in test [7]; in test [8]) was > 30 µM (inactive) throughout.
In the case of `O=C(O)[C@]1(Cc2cccc(Nc3nccs3)n2)CC[C@@H](Oc2cccc(Cl)c2F)CC1` [MK-5108], the Kd in test [1] is > 30 µM (inactive); in [2], > 30 µM (inactive); in [3] it was > 30 µM (inactive); in test [4] it was > 30 µM (inactive); in test [5], > 30 µM (inactive); in [6], 0.062 µM (active). In addition, the Kd (at Septin-9; on Ephrin type-A receptor 5; in test [7]; in [8]) was > 30 µM (inactive) throughout.
